Experimental findings from paper PMC4667193 (Scientific Reports, 2015) are described below.

Holding throughout (type): cell-based
Data set [1] has as its system rat primary hippocampal cell culture. The data set is described as follows: total [^3H]inositol phosphate accumulation in hippocampal cells. The note with it: 10^−8 to 10^−3 M. The method, then: Hippocampal cells (1 × 10^6 cells/well) were allowed to equilibrate for 10 minutes with a nutrient solution of the following composition (mM): NaCl 157.00; KCl 5.60; CaCl2 0.27; MgCl2 3.00; NaHCO3 1.80; glucose 5.50 (pH 7.0–7.2) at 37 °C under constant shaking. Cells were incubated with 5 μCi of myo[^3H]inositol (specific activity 18.0 Ci/mmol) for 80 minutes, and lithium chloride (10 mM) for additional 30 minutes. Afterwards, the cells were incubated in the absence (basal level) and in the presence of carbachol (positive control) and AEME (10^−8 to 10^−3 M) for 10 minutes. Cells were removed from the plate using a 0.1 M NaOH solution and washed three times with nutrient solution, transferred to 2 mL of methanol:chloroform (2:1 v-v) at 4 °C and homogenized with a Ultra-Turrax T25 homogenizer at 9500 rpm. Chloroform (0.62 mL) and H2O (0.93 mL) were added to the homogenate, and the solution was centrifuged for 5 minutes at 1,000× g to separate aqueous and organic phases. Total [^3H]inositol phosphate was measured as previously described by Ascoli et al.[45] with slight modification. The aqueous layer was neutralized with 0.1 M HCl and then mixed with 1 mL anion-exchange resin (Dowex AG-X8, formate form, 200–400 mesh), allowed to equilibrate for 30 minutes at room temperature, under agitation, and centrifugated at 1,000× g, for 5 minutes at 4 °C. The resin was then washed sequentially, with 10 mM myo-inositol (2 mL) and 5 mM sodium tetraborate/60 mM sodium formate (2 mL). The resin was incubated for 30 minutes at room temperature with 2 mL of 0.1 M formic acid/1 M ammonium formate). The total [^3H]inositol phosphate was eluted and placed in scintillation vials containing OptiPhase HiSafe 3. The amount of radioactivity was determined in scintillation β-counter (LS 6500 IC, Beckman). Total [^3H]inositol phosphate was expressed as percentage above basal level.

For data set [2] the test system is unchanged. Kind of data set: DNA fragmentation (propidium iodide, flow cytometry). The note with it: for cells with fragmented DNA: 24 hours, control 28.6%. On the procedure: DNA fragmentation was assessed using propidium iodide following the method described by Lima et al.[47]. Hippocampal cells were incubated with 10^−4 or 10^−3 M AEME for 12 and 24 hours. Briefly, exposed cells were removed from the culture plate and centrifuged (500 g for 5 minutes) and lysed with a fragmentation buffer ([…] propidium iodide, 0.1% sodium citrate, and 0.1% Triton-X) for 2 hours at room temperature in the dark. DNA fragmentation was analyzed in a flow cytometry (FACSCalibur, Becton Dickinson, CA) using the FL2-A channel (λexcitation = 585 nm and λemission = 642 nm) and […] cells were evaluated per experiment.

In the next data set the target is T1, Rat M5 mAChR (Rattus norvegicus, UniProt P08911).
T1 construct: host or cells: CHO (CHO-K1) cells
T1 sequence (P08911 1-531): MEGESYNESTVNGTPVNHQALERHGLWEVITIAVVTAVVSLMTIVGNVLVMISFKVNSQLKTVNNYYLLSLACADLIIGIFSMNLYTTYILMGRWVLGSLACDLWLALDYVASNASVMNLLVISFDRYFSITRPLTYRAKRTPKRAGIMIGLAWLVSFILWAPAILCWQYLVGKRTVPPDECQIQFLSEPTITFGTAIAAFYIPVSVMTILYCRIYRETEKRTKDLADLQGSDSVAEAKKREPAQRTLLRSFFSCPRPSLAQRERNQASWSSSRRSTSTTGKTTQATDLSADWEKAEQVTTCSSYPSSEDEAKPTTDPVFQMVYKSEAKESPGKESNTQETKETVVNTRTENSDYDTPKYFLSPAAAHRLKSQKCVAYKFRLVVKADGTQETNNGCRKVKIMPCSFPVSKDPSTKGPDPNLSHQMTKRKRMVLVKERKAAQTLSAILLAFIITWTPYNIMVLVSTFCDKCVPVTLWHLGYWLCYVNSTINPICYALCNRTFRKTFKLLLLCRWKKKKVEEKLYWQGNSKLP
The data set is described as follows: calcium mobilization assay in CHO cells, incl. Schild analysis. The method, then: CHO cells expressing rM1, rM3 and rM5 were plated at 4 × 10^4 cells per well, whereas rM2 and rM4 were plated at 6 × 10^4 cells per well, in standard growth media (as described previously under “cell culture”) in 96-well plates 24 hours before assay and were incubated overnight at 37 °C in 5% CO2. […] Cells were incubated for 45 minutes (37 °C, 5% CO2) for dye loading. Fluo4-AM dye was removed, cells were washed and replaced with 40 μL of calcium assay buffer. AEME concentration-response curves were determined in single-add experiments. […] All compounds were dissolved in dimethyl sulfoxide (DMSO) and then in calcium assay buffer to obtain a final DMSO concentration of 0.3%. […] These values were fit using GraphPad Prism version 5.0 to determine EC50 values and Schild slope and pA2 in the Schild analyses.
A general note: A change in cytosolic calcium serves as a functional read-out for many receptors and channels.

Data set [3] has as its system rat primary hippocampal cell culture. The data set is described as follows: MTT viability assay, AEME-induced neurotoxicity. As to conditions: 10^−3 M AEME, 24 hours, % of control. On the procedure:
Neuronal viability was evaluated in the hippocampal cell culture using the 3-(4,5-dimethylthiazol-2-yl)-2,5-diphenyltetrazolium bromide (MTT; Sigma) reduction assay, with some modification. Briefly, after 24 hours of incubation with 10^−3 M AEME in the absence and in the presence of 10 nM pirenzepine hydrochloride (M1 selective antagonist; Sigma), 10 nM p-F-HHSiD (M3 selective antagonist; Sigma) and the specific inhibitor of different isoforms of PLC U73122 (10 nM)[55] (Sigma), all the medium was removed, and 100 μL of MTT solution, containing 5 mg/mL MTT in PBS and neurobasal medium without phenol red (1:9, v/v) were added. After 3 hours of incubation with MTT at 37 °C in a humidified atmosphere of 5% CO2, the MTT solution was removed and 200 μL of dimethyl sulfoxide was added to each well. After 30 minutes of shaking, the absorbance was measured at 570 nm in a multiwell plate reader (BioTek Synergy H1 Hybrid Reader). Potassium chloride (250 mM) was used as a positive control of neuronal death. Muscarinic antagonists, as well as the iPLC, were added 30 minutes prior to incubation with AEME. The antagonist concentration used was near the pKi[25][56]. A control containing 0.002% DMSO was used, since the iPLC stock solution was previously dissolved in this solvent. The assay was performed in quadruplicate, and the results were expressed as a percentage of the control value.

Where [4] appears, read: rat M5, AEME 10^−6 to 10^−3.5 M vs acetylcholine.

Regarding `COC(=O)C1=CC[C@@H]2CC[C@H]1N2C` [AEME, anhydroecgonine methyl ester], the “effect on total [^3H]inositol phosphate” value in data set [1] was “concentration-dependent increase”. Besides, the “concentration giving maximum inositol phosphate accumulation” value in data set [1] (10 minutes) is recorded as 10^−5 M. In addition, the “cells with fragmented DNA” value in data set [2] (10^−3 M) was found to be 44.1%; in data set [2] (lower AEME concentration (10^−4 M)) it was 32.1%. Further, in data set [2] (10^−4 or 10^−3 M, 12 hours), the DNA fragmentation entry is on record as “same pattern of DNA fragmentation as the control group”. Also, the mechanism of action result on Rat M5 mAChR (rat M5, 100 μM AEME on ACh curve) was “antagonized the effects of ACh”. The Schild slope on Rat M5 mAChR (setting [4]) is 0.95 ± 0.07. Also, at Rat M5 mAChR (setting [4]), the “pA2 (antagonist affinity, Schild analysis)” value was 4.87 ± 0.10. Also, the calcium increase entry at Rat M5 mAChR (rat M5, agonist mode) is “no calcium increase”. The viable cells in data set [3] came to 67.2%.
